Paper PMC7349874, “High Content Screening Using New U2OS Reporter Cell Models Identifies Harmol Hydrochloride as a Selective and Competitive Antagonist of the Androgen Receptor” (Cells, 2020)
Counter-ions that a name gives are not always drawn.

Assays:
GR = GR expression (RT-qPCR and Western blot) in LNCaP cells; conditions: 3 µM, 24 h, 1 nM R1881
Method: LNCaP and VCaP cells were seeded in 6-well plates (10^6 and 2 × 10^6 cells per well, respectively) and, 48 h later, complete medium was replaced by charcoal-stripped medium with 5% FBS. Cells were then treated for 24 h with the tested compounds, and RNA extraction was performed using the Quick RNA Miniprep kit (Zymo-Research, Irvine, CA, USA), according to the manufacturer’s protocol. Reverse transcription was performed with 0.5 µg total RNA using the SuperScript III reverse transcriptase kit (ThermoFisher, Waltham, MA, USA), according to the manufacturer’s protocol, in a final volume of 20 µL. The levels of genes transcripts were measured by real time PCR using a LightCycler 480 system (Roche Life Science, Penzberg, Germany) in the presence of SYBRGreen (SYBR® Premix Ex Taq^tm) and the following primers: FKBP5, sense 5′-[sequence]-3′; antisense 5′-[sequence]-3′; PSA, sense 5′-[sequence]-3′; antisense 5′-[sequence]-3′; TMPRSS2, sense 5′-[sequence]-3′, antisense 5′-[sequence]-3′; GR, sense 5′-[sequence]-3′, antisense 5′-[sequence]-3′; HPRT, sense 5′-[sequence]-3′; antisense 5′-[sequence]-3′; GAPDH, sense 5′-[sequence]-3′; antisense 5′-[sequence]-3′. Expression levels were evaluated with the ΔΔCt method and were normalized to GAPDH. Results are expressed as mRNA expression, relative to control (untreated cells), and are the mean ± SEM of 3 independent experiments. […]

LNCaP cells = assay: Spheroid growth (CellTiter-Glo), LNCaP; conditions: 7 days, 1 nM R1881
AR [1] = biological target: T1, AR (Homo sapiens, UniProt P10275); assay: Transactivation assay in PC3 hAR MMTV-luc (PALM) cells; conditions: for IC50: IC50 of AR transactivation inhibition
T1 sequence (P10275 1-920): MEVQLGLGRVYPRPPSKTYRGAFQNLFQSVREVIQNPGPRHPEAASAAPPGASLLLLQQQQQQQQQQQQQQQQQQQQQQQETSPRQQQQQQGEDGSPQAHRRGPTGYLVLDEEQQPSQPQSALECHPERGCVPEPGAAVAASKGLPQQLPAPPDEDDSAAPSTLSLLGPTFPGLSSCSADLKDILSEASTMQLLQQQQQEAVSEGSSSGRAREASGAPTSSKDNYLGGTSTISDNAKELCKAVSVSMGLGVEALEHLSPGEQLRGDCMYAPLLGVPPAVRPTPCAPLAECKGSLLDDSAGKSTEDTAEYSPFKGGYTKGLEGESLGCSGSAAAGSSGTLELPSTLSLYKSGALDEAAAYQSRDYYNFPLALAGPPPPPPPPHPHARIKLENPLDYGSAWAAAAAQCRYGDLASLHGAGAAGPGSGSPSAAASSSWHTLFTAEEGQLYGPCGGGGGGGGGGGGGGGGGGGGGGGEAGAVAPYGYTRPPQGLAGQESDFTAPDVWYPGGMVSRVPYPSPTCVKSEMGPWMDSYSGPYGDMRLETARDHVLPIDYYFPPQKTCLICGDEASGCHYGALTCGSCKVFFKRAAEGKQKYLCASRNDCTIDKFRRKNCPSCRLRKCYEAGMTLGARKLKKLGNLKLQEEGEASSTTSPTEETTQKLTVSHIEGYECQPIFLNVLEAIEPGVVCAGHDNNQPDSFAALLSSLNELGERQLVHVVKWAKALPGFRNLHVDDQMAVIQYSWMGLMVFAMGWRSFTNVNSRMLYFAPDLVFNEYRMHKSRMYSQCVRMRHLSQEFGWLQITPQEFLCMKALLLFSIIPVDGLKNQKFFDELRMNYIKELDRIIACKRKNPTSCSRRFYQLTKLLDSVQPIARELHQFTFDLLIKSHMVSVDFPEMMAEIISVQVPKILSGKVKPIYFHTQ

PC3 cells = assay: Spheroid growth (CellTiter-Glo), PC3; assay type: cell-based, human; conditions: 7 days, AR negative cells
[2] = test system: AR target genes TMPRSS2, FKBP5, PSA; assay: RT-qPCR of AR target genes in LNCaP cells; conditions: 3 µM, 24 h, 1 nM R1881
Method: LNCaP and VCaP cells were seeded in 6-well plates (10^6 and 2 × 10^6 cells per well, respectively) and, 48 h later, complete medium was replaced by charcoal-stripped medium with 5% FBS. Cells were then treated for 24 h with the tested compounds, and RNA extraction was performed using the Quick RNA Miniprep kit (Zymo-Research, Irvine, CA, USA), according to the manufacturer’s protocol. Reverse transcription was performed with 0.5 µg total RNA using the SuperScript III reverse transcriptase kit (ThermoFisher, Waltham, MA, USA), according to the manufacturer’s protocol, in a final volume of 20 µL. The levels of genes transcripts were measured by real time PCR using a LightCycler 480 system (Roche Life Science, Penzberg, Germany) in the presence of SYBRGreen (SYBR® Premix Ex Taq^tm) and the following primers: FKBP5, sense 5′-[sequence]-3′; antisense 5′-[sequence]-3′; PSA, sense 5′-[sequence]-3′; antisense 5′-[sequence]-3′; TMPRSS2, sense 5′-[sequence]-3′, antisense 5′-[sequence]-3′; GR, sense 5′-[sequence]-3′, antisense 5′-[sequence]-3′; HPRT, sense 5′-[sequence]-3′; antisense 5′-[sequence]-3′; GAPDH, sense 5′-[sequence]-3′; antisense 5′-[sequence]-3′. Expression levels were evaluated with the ΔΔCt method and were normalized to GAPDH. Results are expressed as mRNA expression, relative to control (untreated cells), and are the mean ± SEM of 3 independent experiments.

AR [3] = conditions: cited from earlier work
VCaP spheroids = conditions: 7 days, up to the highest concentrations used
Method: (§1) prostate cancer cells. GAPDH was used as a loading control.
(§2) Spheroids were treated for 7 days with the indicated concentrations of each drug, stained with PI (1 mg/mL) for 30 min and […] was evaluated using the Celigo® imaging system. Results are expressed as mortality ratios as compared to untreated spheroids (set at 1). Each point represent s the m ean ± SEM of 3 […]
(§3) Mortality (ratio/control)
(§4) [Harmol Hydrochloride] (M)

LNCaP spheroids = conditions: 7 days, up to the highest concentrations used
Method: as §1, §2, §3, §4

[4] = set-up: method as in PMID 19363158; conditions: cited from earlier work
AR [5] = biological target: T1, AR; assay: cell-based; assay type: binding
Method: U2OS hAR-AREluc cells were seeded at a density of 80,000 cells per well in clear-bottomed 96-well plates (Greiner Bio-One, Courtaboeuf, France). […] Cells were then lysed with 50 μL of LSC-cocktail (Emulsifier-Safe, Packard BioScience, Wellesley, MA, USA), and [^3H]-bound radioactivity was counted in scintillation liquid with a microbeta trilux (Perkin Elmer, Wellesley, MA, USA). Non-specific binding was determined in the presence of 300 nM unlabeled R1881. Specific binding was calculated by subtracting non-specific binding from the total binding, and expressed as disintegrations per minute (dpm). […] Relative binding affinities (RBA) were calculated as IC50 ratios between each competitor and R1881. The RBA value for R1881 was arbitrarily set at 100.
Non-specific binding was determined in the presence of 300 nM unlabeled R1881. Specific binding was calculated by subtracting non-specific binding from total binding. Results were plotted as % of maximal [^3H]-labeled R1881 binding as a function of drug concentrations (n = 3 ± SEM).

Q: Which “Expression of GR at the mRNA and protein levels” value (GR) does the source give for `Cc1nccc2c1[nH]c1cc(O)ccc12` [harmol hydrochloride, Harmol hydrochloride monohydrate] here?
A: neither harmol nor enzalutamide treatment could significantly alter the expression of GR

Q: And the “Growth of LNCaP spheroids” value (LNCaP cells)?
A: A similar effect was observed

Q: What about the “Inhibition of AR transactivation” value (AR [1]; 10 nM R1881) of the same compound?
A: inhibition was not significant

Q: What about the IC50 (AR [1]; R1881 0.1 nM) of the same compound?
A: 183 nM

Q: What about the IC50 (AR [1]; R1881 0.3 nM) of the same compound?
A: 535 nM

Q: And the IC50 (AR [1]; R1881 1 nM)?
A: 1900 nM

Q: And the “Growth of PC3 spheroids” value (PC3 cells)?
A: no effect

Q: And the “Expression of the AR non-target gene HPRT” value [2]?
A: unaffected

Q: What about the “R1881-mediated expression of AR target genes TMPRSS2, FKBP5, PSA” value [2] of the same compound?
A: significant decrease

Q: And the “Concentration competing for ligand binding relative to the concentration necessary to fully inhibit AR activity” value (AR [3])?
A: 30- to 100 fold

Q: And the “Inhibition of AR activation in a chemical genomic screen” value (AR [3])?
A: weak inhibitor

Q: What about the “Nature of AR inhibition reported earlier” value (AR [3]) of the same compound?
A: non-competitive inhibitor of AR

Q: What about the “Cell death (propidium iodide positive cells) versus untreated spheroids” value (VCaP spheroids) of the same compound?
A: did not significantly affect the number of propidium iodide positive cells

Q: What about the “Cell death (propidium iodide positive cells) versus untreated spheroids” value (LNCaP spheroids) of the same compound?
A: did not significantly affect the number of propidium iodide positive cells

Q: What about the “Metabolism when administered in mice” value [4] of the same compound?
A: rapidly metabolized

Q: What about the “Concentration competing with ligand binding relative to enzalutamide” value (AR [5]) of the same compound?
A: 3.5 fold

Q: And the IC50 (AR [5]; 0.3 nM [3H]-R1881, 3 h, 37 °C, read-out: IC50 of competition with [3H]-R1881 for AR binding)?
A: 540 nM
